Measured values: patent US8017554B2, “3-amino-1,2-benzisothiazole compounds for combating animal pest” (BASF SE, priority 2006, dated 2011)

melting point: 111 to 114 °C
SMILES: CCN1C(=N)c2c(OC)cccc2S1(=O)=O [Compound example 3, 2-Ethyl-4-methoxy-1,1-dioxo-1,2-dihydro-1λ*6*-benzo[d]isothiazol-3-ylideneamine]
